Patent US10653741B2, “Herbo-mineral formulation for the treatment of cardio vascular diseases and method of preparation thereof” (Muniyal Ayurvedic Research Centre, priority 2017, dated 2020)

Columns and labels:
[1] = Body weight, ISP induced myocardial infarction study; format: in vivo, Sprague-Dawley rats; conditions: Carvedilol 2 mg/kg + ISP, Mean ± SEM
Source text: (§1) Animals: 35 male Sprague-Dawley rats of 150-200 g body weight were selected for the study. Animals were housed in individual polycarbonate cages in a well-ventilated room under an ambient temperature of 23±2 degree C. and 40-65% relative humidity, with artificial photoperiod 12-h light/12-h dark cycle. They were provided with standard rodent pellet diet (Nutrilab Rodent, Tetragon Chemie, India) and purified water ad libitum (RIOS, USA). Experimental animals were acclimatized for 7 days to the laboratory conditions prior to experimentation. The study protocol was approved by Institutional Animal Ethical Committee (IAEC).
(§2) Experimental groups and design: Rats were randomized into 5 groups based on the body weight. ISP (120 mg/kg) was injected subcutaneously to rats on 19th and 21st day to induce experimental myocardial infarction. Test drug was orally administered throughout the study. • Group I (Normal control): 0.5% CMC • Group II (Positive control): 0.5% CMC+ISP (120 mg/kg) • Group III (Standard): Carvedilol (2 mg/kg/day, p.o)+ISP (120 mg/kg, s.c.) • Group IV (Low dose): Test drug (50 mg/kg/day, p.o)+ISP (120 mg/kg, s.c.) • Group V (High dose): Test drug (100 mg/kg/day, p.o)+ISP (120 mg/kg, s.c.)
(§3) The change in body weight was recorded every week. At the end of the experiment, blood was collected and the plasma was separated for biochemical investigation. The animals were euthanized and the organs (heart, Kidney and adrenals) were dissected out and weighed. Heart homogenate was used for further analysis and LV was separated for the analysis of apoptotic marker gene expression as depicted in the various examples hereunder.

[2] = Organ weight, ISP induced myocardial infarction study; format: in vivo, Sprague-Dawley rats; conditions: Carvedilol 2 mg/kg + ISP
Source text: as §1, §2, §3

COc1ccccc1OCCNCC(O)COc1cccc2[nH]c3ccccc3c12 (centres unmarked) [Carvedilol]
Body weight ([1]; 0th day): 211.00 ± 1.70 g
Body weight ([1]; 7th day): 210.57 ± 3.22 g
Body weight ([1]; 14th day): 218.43 ± 4.37 g
Body weight ([1]; 21st day): 216.43 ± 1.58 g
Organ weight: Heart, percent in brackets (compared with Positive control) [2]: 13.1%
Organ weight: Adrenals ([2]; Mean ± SEM): 0.02 ± 0.00 g
Organ weight: Heart ([2]; Mean ± SEM): 0.44 ± 0.07 g
Organ weight: Kidney ([2]; Mean ± SEM): 0.68 ± 0.10 g
